Experimental findings from patent US20250043290A1, “RNA SEQUENCES THAT INDUCE FLUORESCENCE OF SMALL MOLECULE FLUOROPHORES, MOLECULAR COMPLEXES, SENSORS, AND METHODS OF USE THEREOF” (CORNELL UNIVERSITY, priority 2021, published 2025) are described below.

“Also recorded” adds a separate entry of the source.

For data set [1], the system named is HEK293T cells. The experiment in a line: Cytotoxicity of DFAME, MTT assay after illumination. The class given is cell-based. The conditions noted are these: 10 μM, illuminated for 10 minutes. On the procedure: FIG. 31A is a graph showing the results of an experiment evaluating fluorescence of DFAME when mixed with cells. An important criteria for a fluorogenic dye is that it must have very low fluorescence when mixed with cells. To test this, 10 μM DFAME was incubated with cultured HEK293T cells and the fluorescence intensity of the DFAME-incubated cells was measured. […] Although the background fluorescence in cells induced by DFAME (n=48 cells) was higher than DFHO (n=47 cells) or DFHBI-1T (n=44 cells), it was reasoned that DFAME could be used if enough fluorogenic aptamer is used in cells. Data were collected from three independent cell cultures. Values are means±s.d. FIG. 31B is a graph showing the cytotoxicity of DFAME. To apply a fluorogenic dye in cells, it is critical that this dye has minimal cytotoxicity. To test the cytotoxicity of DFAME, HEK293T cells were first incubated with 10 μM DFAME, then illuminated for 10 minutes using a Nikon Intensilight C-HGFIE 130 W mercury lamp with the TRITC filter set. Control cells were illuminated under identical conditions either with 0.2% DMSO (illuminated with the TRITC filter set) or 10 μM malachite green (illuminated with the Cy5 filter set). […] MTT absorbance readings were performed at 550 nm with 650 nm absorbance used for background subtraction. […]
On the technique in general: Formazan colour is commonly taken as a measure of viable cells.

Data set [2] can be described thus: Photophysical properties of DFAME, DFHO and RNA complexes (Beetroot study). The class given is physicochemical. An excerpt:
dsDNA encoding the top-performing RNA sequences from the brightest bacterial colonies was PCR amplified from the purified plasmids. PCR products were subjected to gel electrophoresis in 2% TBE gel, and the PCR product band corresponding to the correct size was excised from gel and further purified with PCR purification columns (Qiagen) and in vitro transcribed using an AmpliScribe T7-Flash Transcription Kit (Epicenter). The resulting RNA was then purified using Zymo RNA concentrator columns and quantified by absorbance using a Thermo Scientific NanoDrop 2000 spectrophotometer. For absorption, excitation and emission spectra measurements, “excess RNA” conditions and limiting amount of fluorophore was used to ensure that no free fluorophore contributes to the absorbance or fluorescence signal. The RNA concentration used for fluorescence and absorbance measurements was 20 μM and 50 μM, respectively, while the dye concentration was 2 μM and 5 μM, respectively. All in vitro RNA properties were measured in 40 mM HEPES pH 7.4, 100 mM KCl, 5 mM MgCl2 buffer, unless specified.
Extinction coefficient was calculated based on Beer's law. Briefly, absorbance spectrum of 5 μM DFAME, Beetroot-DFAME, or Corn-DFAME was measured using a Thermo Scientific NanoDrop 2000 spectrophotometer with cuvette capability. Extinction coefficient was calculated by dividing peak absorbance value by the concentration of fluorophore alone, or RNA-fluorophore complex.
Quantum yield was determined by comparing the integral of the emission spectra for DFAME or RNA-DFAME complex with the corresponding integral obtained from Rhodamine B solution. These integral values were plotted against the absorbance values corresponding to the excitation wavelength. The slopes from the above plots were calculated for determining quantum yield. Quantum yield was calculated by multiplying the quantum yield of Rhodamine B by the slope of DFAME or RNA-DFAME complex, then divided by the slope of Rhodamine B.

Data set [3] is described as follows: Fluorescence emission of Beetroot with DFHBI-1T. Type of data set: biochemical. The conditions noted are these: 20 μM RNA, 2 μM dye. On the procedure:
(§1) To test whether Beetroot can activate DFHO, the fluorescence emission spectrum of the Beetroot-DFHO complex was measured. In brief, 20 μM Beetroot and 2 μM DFHO were mixed, and the fluorescence emission of the Beetroot-DFHO complex was measured. […] To test whether Beetroot can activate DFHBI-1T, the fluorescence emission spectrum of the Beetroot-DFHBI-1T complex was measured using the same protocol described in FIG. 32A. […] To test whether Beetroot can activate BI, the fluorescence emission spectrum of the Beetroot-BI complex was measured using the same protocol described in FIG. 32A. […] To test whether Corn can activate DFAME, the fluorescence emission spectrum of the Corn-DFAME complex was measured using the same protocol described in FIG. 32A.

Data set [4] can be described thus: Fluorescence activation of DFAME by aptamers in vitro. Type of data set: biochemical. The conditions noted are these: in vitro. As for the experimental part:
as §1
The eluted RNAs were then ethanol precipitated, reverse transcribed, PCR amplified and in vitro transcribed to yield the pool for the next SELEX round. The presence of fluorescent RNA species in each pool was assessed by mixing 20 μM RNA and 10 μM DFAME and measuring fluorescence emission of this solution on a fluorometer in comparison with the fluorophore alone. At this point, RNAs were cloned into bacterial expression plasmids for FACS-based screening.
dsDNA encoding the top-performing RNA sequences from the brightest bacterial colonies was PCR amplified from the purified plasmids. […] The resulting RNA was then purified using Zymo RNA concentrator columns and quantified by absorbance using a Thermo Scientific NanoDrop 2000 spectrophotometer. For absorption, excitation and emission spectra measurements, “excess RNA” conditions and limiting amount of fluorophore was used to ensure that no free fluorophore contributes to the absorbance or fluorescence signal. The RNA concentration used for fluorescence and absorbance measurements was 20 μM and 50 μM, respectively, while the dye concentration was 2 μM and 5 μM, respectively. All in vitro RNA properties were measured in 40 mM HEPES pH 7.4, 100 mM KCl, 5 mM MgCl2 buffer, unless specified.

Data set [5] can be described thus: Fluorescence emission of Beetroot with DFHO. The conditions noted are these: 20 μM Beetroot, 2 μM DFHO. Type of data set: biochemical. On the procedure:
as §1

The test system of data set [6] is HEK293T cells. The experiment in a line: Imaging Beetroot in HEK293T cells. The class given is cell-based. The conditions noted are these: Tornado circular RNA, tRNA or F30-tRNA scaffold, 10 μM DFAME, 5 mM MgCl2. On the procedure:
FIGS. 35A-35B show imaging Beetroot in HEK293T cells. To test whether Beetroot could be imaged in HEK293T cells, Beetroot was expressed in Tornado. […] FIG. 35B are images showing HEK293T cells which were transiently transfected with Beetroot-expressing plasmids. About 36 hours after transfection, these transfected HEK293T cells were incubated with 10 μM DFAME and 5 mM MgCl2 for 1 hour prior to imaging. Detectable levels of red fluorescence were not observed in HEK293T cells. Data shown here is a representative image from three independent cell cultures. Scale bar, […].
Prior to imaging experiments, HEK293T cells were incubated with 1 μl of Hoechst 33342 (Thermo Fisher Scientific, H3570) per 2 ml of imaging media (phenol red-free Dulbeco's modified Eagle's medium (Thermo Fisher Scientific 31053-028) supplemented with 10% fetal bovine serum (Corning 35-010-CV), 100 U ml-1 of penicillin and […] of streptomycin, 1× GlutaMAX (Thermo Fisher Scientific, 35050-061) and 1 mM sodium pyruvate (Thermo Fisher Scientific, 11360-070)). For imaging experiments of RNA-fluorophore complex, HEK293T cells were incubated with imaging media supplemented with a final concentration of 10 μM fluorophore (DFHO or DFAME) and 5 mM MgCl2 for one hour prior to imaging.

Data set [7] is described as follows: Fluorescence emission of Beetroot with BI. Type of data set: biochemical. The conditions noted are these: 20 μM RNA, 2 μM dye. On the procedure: as §1
The subject of the next data set is Beetroot. The experiment in a line: Beetroot homodimer dissociation, serial dilution and non-denaturing gel electrophoresis. The conditions noted are these: dilution 1000 nM to 1.4 nM, 20° C., 12 hours; read-out: Homodimerization dissociation constant (Kd). The class given is binding. As for the experimental part:
FIGS. 33A-33C provide the dissociation constant (Kd) of Beetroot homodimer. […] These RNAs were incubated at 20° C. for 12 hours and then analyzed using non-denaturing gel electrophoresis (FIG. 33A). The fraction of Beetroot monomer (FIG. 33B) and Beetroot dimer (FIG. 33C) were quantified after SYBR Gold staining. […] The RNA band marked with an asterisk (*) reflects an RNA side product from in vitro transcription. The same side product band was also observed in FIGS. 27B-27C. Quantification shown in […] is based on two independent experiments. FIG. 33D are images showing genetic encoding of simple macromolecular RNA assemblies in cells using Corn when circular RNAs containing 3 and 5 copies of Corn were expressed in HEK293T cells. Clusters of these Corn-containing RNAs were observed as large intracellular puncta. Data shown here is a representative image from three independent cell cultures. Scale bar, 20 μm. FIG. 33E is a graph showing the quantification of the fraction of Corn and Beetroot in the cell that accumulates in puncta. As the valency of Corn increases from three to five, the fraction of Corn participating in the RNA assembly increases from 28±12% to 57±14%. Compared to 5× Corn, a fraction of 27±11% of 5× Beetroot are participating in the Beetroot RNA assembly. Values are means±s.d. FIG. 33F is a graph showing quantification of RNA assembly size in cells. […]

A further data set concerns Corn. The experiment in a line: Beetroot-Corn heterodimer formation, nondenaturing electrophoretic analysis. Type of data set: binding. The conditions noted are these: equimolar mixture, heat-denatured and cooled. On the procedure:
FIG. 27B is an image showing that Beetroot is a dimer in vitro. To test this, nondenaturing electrophoretic analysis was performed on a wild-type Beetroot and a mutant Beetroot with mutations in the G-quadruplex that are expected to disrupt any putative dimer formation. […] The RNA band marked with an asterisk (*) reflects an RNA side product from in vitro transcription. […] To test whether Beetroot and Corn can form heterodimers in vitro, nondenaturing electrophoretic analysis was performed on Beetroot, Corn, and a Beetroot-Corn equimolar mixture to measure heterodimer formation. If Beetroot (107 nt) and Corn (250 nt) are orthogonal dimers, two distinct molecular species would be expected: dimeric Beetroot and dimeric Corn. On the other hand, if Beetroot-Corn heterodimers are formed, a third molecular species, reflecting a Beetroot-Corn heterodimer, with a molecular weight in between dimeric Beetroot and dimeric Corn, would be expected. […] In-gel staining with DFAME and DFHO also confirmed the identity of the putative dimeric species. The RNA band marked with an asterisk (*) reflects an RNA side product from in vitro transcription. A final concentration of 350 nM RNA was used in each lane. […]

Consider `COC(=O)/C=C/C1=NC(=C\c2cc(F)c(O)c(F)c2)/C(=O)N1C` [DFAME, methyl 3-((Z)-4-(3,5-difluoro-4-hydroxybenzylidene)-1-methyl-5-oxo-4,5-dihydro-1H-imidazol-2-yl)acrylate], for which, in the data set with HEK293T cells [1], the Cytotoxicity entry is reported as “low cytotoxicity”. For the same compound, in data set [2], the Emission maximum was 641 nm and the Excitation maximum was found to be 508 nm. The Fluorescence in solution entry in [2] (10 μM) is “very low red fluorescence”. For the same compound, the Extinction coefficient in [2] (DFAME alone, at 514 nm, pH 7.4 buffer) is 32,500 M^−1cm^−1. Besides, in data set [2] (relative to Corn-DFHO), the “Brightness (extinction coefficient × quantum yield)” value is on record as 1.3. The same compound displayed a Fluorescence quantum yield in data set [2] (versus Rhodamine B) of 0.0029.

By Kd is commonly meant the concentration at which binding is half-saturated. In the case of “Beetroot: red-fluorescent dimeric fluorogenic RNA aptamer binding DFAME, SEQ ID NO: 96 (GUUAGGCAGAGGUGGGUGGUGUGGAGGAGUAUCUGUC; RNA, backbone not given here)”, the “Binding and activation of DFHBI-1T fluorescence” value in [3] is “cannot bind and activate”. For the same compound, the “Fold fluorescence enhancement of DFAME” value in [4] was “approximately 40 fold”. Moreover, the “Binding and activation of DFHO fluorescence” value in data set [5] is “weakly binds and activates; also recorded: only weakly bind and activate”. The “Red fluorescence in cells” value with HEK293T cells [6] is listed as “not observed”. Further, the “Binding and activation of BI fluorescence” value in data set [7] was “cannot bind and activate”. Besides, the Kd in the data set on Beetroot was less than 1 nM. The “Heterodimer formation with Corn” value with Corn is reported as “no mixed Corn-Beetroot heterodimers”.
